Patent publication US12344610B2, “APOL1 inhibitors and methods of use” (Maze Therapeutics, Inc., priority 2022, dated 2025)

Molecular target: T1, APOL1 G2 (Homo sapiens, UniProt O14791, DEL388-389)
T1 construct: expressed in transfected cells; host or cells: HEK293 T-REx clonal line stably expressing GCaMP6f (HEK T-REx/GCaMP6f/APOL1 G2 K6.3), doxycycline induced
T1 sequence (O14791 with tags, fused parts or gaps DEL388-389): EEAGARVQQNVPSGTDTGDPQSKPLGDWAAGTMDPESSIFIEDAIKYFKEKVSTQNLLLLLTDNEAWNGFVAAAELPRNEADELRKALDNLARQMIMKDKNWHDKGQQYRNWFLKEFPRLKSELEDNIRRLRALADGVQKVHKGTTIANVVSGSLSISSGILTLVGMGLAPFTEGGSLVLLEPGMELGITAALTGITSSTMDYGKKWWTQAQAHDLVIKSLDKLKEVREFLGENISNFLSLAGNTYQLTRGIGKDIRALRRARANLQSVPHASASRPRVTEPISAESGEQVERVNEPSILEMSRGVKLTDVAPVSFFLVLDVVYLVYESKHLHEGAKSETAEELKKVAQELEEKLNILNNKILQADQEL
Experiment: APOL1-mediated calcium transport (calcium influx) assay, HEK T-REx/GCaMP6f/APOL1 G2 K6.3 cells, FLIPR TETRA
Format: cell-based
Settings: prevention of calcium influx; geometric mean of at least 2 assay runs; † = average of a technical replicate from a single assay run
Procedure, shortened: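 A HEK293 T-REx clone stably expressing GCaMP6f had APOL1 G2 induced with doxycycline (20 ng/mL solution added) for 6 h. Cells were then washed into Ca2+-free Tyrode's buffer (pH 7.4) and preincubated with compounds (duplicate 8-point) for 10 min at room temperature. Ca2+ injection to 5 mM final produced FLIPR GCaMP fluorescence, giving AC50 for influx inhibition (geometric mean, ≥2 runs).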

CC(O)c1ncc(OCCN2CCC3(CC2)C(=O)Nc2ccc(Cl)cc23)cn1 (single isomer, unassigned) [Compound 286, 5-chloro-1′-[2-({2-[(1R) or (1S)-1-hydroxyethyl]pyrimidin-5-yl}oxy)ethyl]-1,2-dihydrospiro[indole-3,4′-piperidin]-2-one]
AC50: 917 nM

CC(O)c1ncc(OCCN2CCC3(CC2)C(=O)Nc2ccc(C(F)F)cc23)cc1C(F)(F)F (single isomer, unassigned) [Compound 287, 5-(difluoromethyl)-1′-[2-({6-[(1S) or (1R)-1-hydroxyethyl]-5-(trifluoromethyl)pyridin-3-yl}oxy)ethyl]-1,2-dihydrospiro[indole-3,4′-piperidin]-2-one]
AC50: 303 nM

CC(O)c1ncc(OCCN2CCC3(CC2)C(=O)Nc2ccc(C(F)F)cc23)cc1C(F)(F)F (single isomer, unassigned) [Compound 288, 5-(difluoromethyl)-1′-[2-({6-[(1R) or (1S)-1-hydroxyethyl]-5-(trifluoromethyl)pyridin-3-yl}oxy)ethyl]-1,2-dihydrospiro[indole-3,4′-piperidin]-2-one]
AC50: 369 nM

CC[C@]1(O)C[C@H](N2C(=O)CCc3cc(OCCN4CCC5(CC4)C(=O)Nc4ccc(Cl)cc45)cnc32)C1 (single isomer, unassigned) [Compound 290, 5-chloro-1′-[2-({7-oxo-8-[(trans)-3-ethyl-3-hydroxycyclobutyl]-5,6,7,8-tetrahydro-1,8-naphthyridin-3-yl}oxy)ethyl]-1,2-dihydrospiro[indole-3,4′-piperidin]-2-one]
AC50: 253 nM

CC(O)c1ncc(OCCN2CCC3(CC2)C(=O)Nc2ccc(Cl)cc23)cc1C(F)(F)F (single isomer, unassigned) [Compound 291, 5-chloro-1′-[2-({6-[(1R) or (1S)-1-hydroxyethyl]-5-(trifluoromethyl)pyridin-3-yl}oxy)ethyl]-1,2-dihydrospiro[indole-3,4′-piperidin]-2-one]
AC50: 1190 nM

CC(O)c1ncc(OCCN2CCC3(CC2)C(=O)Nc2ccc(Cl)cc23)cc1C(F)(F)F (single isomer, unassigned) [Compound 292, 5-chloro-1′-[2-({6-[(1S) or (1R)-1-hydroxyethyl]-5-(trifluoromethyl)pyridin-3-yl}oxy)ethyl]-1,2-dihydrospiro[indole-3,4′-piperidin]-2-one]
AC50: 1300 nM

O=C1CCc2cc(OCCN3CCC4(CC3)C(=O)Nc3ccc(Cl)cc34)cnc2N1[C@H]1C[C@@](O)(C2CC2)C1 (single isomer, unassigned) [Compound 297, 5-chloro-1′-[2-({7-oxo-8-[(trans)-3-cyclopropyl-3-hydroxycyclobutyl]-5,6,7,8-tetrahydro-1,8-naphthyridin-3-yl}oxy)ethyl]-1,2-dihydrospiro[indole-3,4′-piperidin]-2-one]
AC50: 937 nM

C[C@]1(O)C[C@H](N2C(=O)CCc3cc(OCCN4CCC5(CC4)C(=O)Nc4ccc(Cl)cc45)cnc32)C1 (single isomer, unassigned) [Compound 307, 5-chloro-1′-[2-({7-oxo-8-[(trans)-3-hydroxy-3-methylcyclobutyl]-5,6,7,8-tetrahydro-1,8-naphthyridin-3-yl}oxy)ethyl]-1,2-dihydrospiro[indole-3,4′-piperidin]-2-one]
AC50: 320 nM

CS(=O)(=O)c1ccc(OCCN2CCC3(CC2)C(=O)N(CCO)c2ccc(Cl)cc23)cc1 [Compound 18, 5-chloro-1-(2-hydroxyethyl)-1′-[2-(4-methanesulfonylphenoxy)ethyl]-1,2-dihydrospiro[indole-3,4′-piperidin]-2-one]
AC50: 240 nM

COCCN1C(=O)C2(CCN(CCOc3ccc(S(C)(=O)=O)cc3)CC2)c2cc(Cl)ccc21 [Compound 20, 5-chloro-1′-[2-(4-methanesulfonylphenoxy)ethyl]-1-(2-methoxyethyl)-1,2-dihydrospiro[indole-3,4′-piperidin]-2-one]
AC50: 348 nM

CN1C(=O)C2(CCN(CCOc3ccc(S(=O)(=O)CCCS(C)(=O)=O)cc3)CC2)c2cc(Cl)ccc21 [Compound 23, 5-chloro-1′-{2-[4-(3-methanesulfonylpropanesulfonyl)phenoxy]ethyl}-1-methyl-1,2-dihydrospiro[indole-3,4′-piperidin]-2-one]
AC50: 514 nM

CS(=O)(=O)c1ccc(OCCN2CCC3(CC2)C(=O)N(CCO)c2ccc(Br)cc23)cc1 [Compound 24, 5-bromo-1-(2-hydroxyethyl)-1′-[2-(4-methanesulfonylphenoxy)ethyl]-1,2-dihydrospiro[indole-3,4′-piperidin]-2-one]
AC50: 200 nM

COCCN1C(=O)C2(CCN(CCOc3ccc(S(C)(=O)=O)cc3)CC2)c2cc(C#N)ccc21 [Compound 25, 1′-[2-(4-methanesulfonylphenoxy)ethyl]-1-(2-methoxyethyl)-2-oxo-1,2-dihydrospiro[indole-3,4′-piperidine]-5-carbonitrile]
AC50: 651 nM

CS(=O)(=O)c1ccc(OCCN2CCCC3(CC2)C(=O)Nc2ccccc23)cc1 (stereo not drawn) [Compound 26, 1-(2-(4-(methylsulfonyl)phenoxy)ethyl)spiro[azepane-4,3′-indolin]-2′-one]
AC50: 943 nM

CN1C(=O)CCc2cc(OCCN3CCC4(CC3)C(=O)Nc3ccc(Cl)cc34)ccc21 [Compound 27, 5-chloro-1′-[2-[(1-methyl-2-oxo-3,4-dihydroquinolin-6-yl)oxy]ethyl]spiro[indoline-3,4′-piperidine]-2-one]
AC50: 510 nM

O=C1CCc2cc(OCCN3CCC4(CC3)C(=O)Nc3ccc(Cl)cc34)cnc2N1CCO [Compound 192, 5-chloro-1′-(2-{[8-(2-hydroxyethyl)-7-oxo-5,6,7,8-tetrahydro-1,8-naphthyridin-3-yl]oxy}ethyl)-1,2-dihydrospiro[indole-3,4′-piperidin]-2-one]
AC50: 291 nM

CC(=O)N(C)CCS(=O)(=O)c1ccc(OCCN2CCC3(CC2)C(=O)Nc2ccc(Cl)cc23)cc1 [Compound 193, N-{2-[4-(2-{5-chloro-2-oxo-1,2-dihydrosiro[indole-3,4′-piperidin]-1′-yl}ethoxy)benzenesulfonyl]ethyl}-N-methylacetamide]
AC50: 1270 nM

CS(=O)(=O)C1(c2ccc(OCCN3CCC4(CC3)C(=O)Nc3ccc(Cl)cc34)cc2)COC1 [Compound 195, 5-chloro-1′-{2-[4-(3-methanesulfonyloxetan-3-yl)phenoxy]ethyl}-1,2-dihydrospiro[indole-3,4′-piperidin]-2-one]
AC50: 604 nM

O=C1Nc2ccc(Cl)cc2C12CCN(CCOc1ccc3c(c1)CCS3(=O)=O)CC2 [Compound 196, 5-(2-{5-chloro-2-oxo-1,2-dihydrospiro[indole-3,4′-piperidin]-1′-yl}ethoxy)-2,3-dihydro-1λ^6-benzothiophene-1,1-dione]
AC50: 696 nM

CS(=O)(=O)c1ccc(OCCN2CCC3(CC2)C(=O)Nc2ccc(Cl)cc23)cc1C(F)F [Compound 197, 5-chloro-1′-{2-[3-(difluoromethyl)-4-methanesulfonylphenoxy]ethyl}-1,2-dihydrospiro[indole-3,4′-piperidin]-2-one]
AC50: 889 nM

O=C1Nc2ccc(Cl)cc2C12CCN(CCOc1ccc(S(=O)(=O)CCO)cc1)CC2 [Compound 198, 5-chloro-1′-{2-[4-(2-hydroxyethanesulfonyl)phenoxy)ethyl}-1,2-dihydrospiro[indole-3,4′-piperidin]-2-one]
AC50: 631 nM

CS(=O)(=O)Nc1ccc(OCCN2CCC3(CC2)C(=O)Nc2ccc(Cl)cc23)cc1 [Compound 214, N-[4-(2-{5-chloro-2-oxo-1,2-dihydrospiro[indole-3,4′-piperidin]-1′-yl}ethoxy)phenyl]methanesulfonamide]
AC50: 355 nM

O=C1Nc2ccc(Cl)cc2C12CCN(CCOc1ccc(S(=O)(=O)[C@H]3C[C@H](O)C3)cc1)CC2 [Compound 215, 5-chloro-1′-[2-(4-{[(trans)-3-hydroxycyclobutyl]sulfonyl}phenoxy)ethyl]-1,2-dihydrospiro[indole-3,4′-piperidin]-2-one]
AC50: 1130 nM

CS(=O)(=O)c1ccc(OCCN2CCC3(CC2)C(=O)Nc2ccc(Cl)cc23)cc1C(O)CO (stereo not drawn) [Compound 216, 5-chloro-1′-{2-[3-(1,2-dihydroxyethyl)-4-methanesulfonylphenoxy]ethyl}-1,2-dihydrospiro[indole-3,4′-piperidin]-2-one]
AC50: 3140 nM

O=C1CCc2cc(OCCN3CCC4(CC3)C(=O)Nc3ccc(Cl)cc34)ccc2N1[C@H]1C[C@H](O)C1 [Compound 224, 5-chloro-1′-[2-({2-oxo-1-[(trans)-3-hydroxycyclobutyl]-1,2,3,4-tetrahydroquinolin-6-yl}oxy)ethyl]-1,2-dihydrospiro[indole-3,4′-piperidin]-2-one]
AC50: 830 nM

O=C1Nc2ccc(Cl)cc2C12CCN(CCOc1ccc(S(=O)(=O)C3(CO)CC3)cc1)CC2 [Compound 225, 5-chloro-1′-[2-(4-{[1-(hydroxymethyl)cyclopropyl]sulfonyl}phenoxy)ethyl]-1,2-dihydrospiro[indole-3,4′-piperidin]-2-one]
AC50: 847 nM

CNC(=O)C1(S(=O)(=O)c2ccc(OCCN3CCC4(CC3)C(=O)Nc3ccc(Cl)cc34)cc2)CC1 [Compound 226, 1-[4-(2-{5-chloro-2-oxo-1,2-dihydrospiro[indole-3,4′-piperidin]-1′-yl}ethoxy)benzenesulfonyl]-N-methylcyclopropane-1-carboxamide]
AC50: 1080 nM
